Reference: PubChem BioAssay (NCI)
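Cells were grown in 96-well plates and exposed to each compound for 48 hours at five concentrations; endpoints were interpolated linearly between bracketing concentrations, or set to the highest concentration if not reached. At the TGI there is no net growth.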

Legend:
Test in all cases: NCI-60 cell line screen, 48 h
HOP-92 NSCLC = system: HOP-92 NSCLC
MOLT-4 leukemia = system: MOLT-4 leukemia
OVCAR-5 ovarian = system: OVCAR-5 ovarian
CCRF-CEM leukemia = system: CCRF-CEM leukemia
OVCAR-3 ovarian = system: OVCAR-3 ovarian
HCT-116 colon = system: HCT-116 colon
HCT-15 colon = system: HCT-15 colon
SK-OV-3 ovarian = system: SK-OV-3 ovarian
CAKI-1 renal = system: CAKI-1 renal
NCI-H460 lung = system: NCI-H460 lung
SW-620 colon = system: SW-620 colon
EKVX NSCLC = system: EKVX NSCLC
SN12C renal = system: SN12C renal
SR leukemia = system: SR leukemia
SK-MEL-5 melanoma = system: SK-MEL-5 melanoma
A498 renal = system: A498 renal
NCI-H522 lung = system: NCI-H522 lung
NCI-H23 lung = system: NCI-H23 lung
M14 melanoma = system: M14 melanoma
MALME-3M melanoma = system: MALME-3M melanoma

Measured: TGI

CC(=S)NC1C(Oc2ccc3c(C)cc(=O)oc3c2)OC(CO)C(O)C1O (stereo not given)
> 100 µM: HOP-92 NSCLC | MOLT-4 leukemia | OVCAR-5 ovarian | CCRF-CEM leukemia | OVCAR-3 ovarian | HCT-116 colon | HCT-15 colon | SK-OV-3 ovarian | CAKI-1 renal | NCI-H460 lung | SW-620 colon | EKVX NSCLC | SN12C renal | SR leukemia | SK-MEL-5 melanoma | A498 renal

CC(C)OP(=O)(OC(C)C)c1ncn(-c2ccc([N+](=O)[O-])cc2)n1
> 100 µM: HOP-92 NSCLC | MOLT-4 leukemia | OVCAR-5 ovarian | CCRF-CEM leukemia | OVCAR-3 ovarian | NCI-H522 lung | HCT-116 colon | HCT-15 colon | SK-OV-3 ovarian | CAKI-1 renal | NCI-H460 lung | NCI-H23 lung | SW-620 colon | M14 melanoma | EKVX NSCLC | MALME-3M melanoma | SN12C renal | SR leukemia | SK-MEL-5 melanoma | A498 renal

C[Si](C)(C)C1=C2C(=O)c3ccccc3C(=O)C2=C([Si](C)(C)C)[C@@H]2CCCC[C@H]12
> 100 µM: HOP-92 NSCLC | MOLT-4 leukemia | OVCAR-5 ovarian | CCRF-CEM leukemia | OVCAR-3 ovarian | NCI-H522 lung | HCT-116 colon | HCT-15 colon | SK-OV-3 ovarian | CAKI-1 renal | NCI-H460 lung | NCI-H23 lung | SW-620 colon | M14 melanoma | EKVX NSCLC | MALME-3M melanoma | SN12C renal | SR leukemia | SK-MEL-5 melanoma | A498 renal

CN1C(=N\S(=O)(=O)c2ccc(Cl)cc2)/C(=N/N=P(c2ccccc2)(c2ccccc2)c2ccccc2)c2ccccc21
> 100 µM: MOLT-4 leukemia | OVCAR-5 ovarian | CCRF-CEM leukemia | OVCAR-3 ovarian | NCI-H522 lung | HCT-116 colon | HCT-15 colon | SK-OV-3 ovarian | CAKI-1 renal | NCI-H460 lung | NCI-H23 lung | SW-620 colon | M14 melanoma | EKVX NSCLC | MALME-3M melanoma | SN12C renal | SR leukemia | SK-MEL-5 melanoma | A498 renal
